Read-outs that look alike come from different tables or passages of the source.
Experiments:
[1] = tested on: Leptosphaeria nodorum (LEPTNO); assay: In vitro fungitoxicity of hydrazones with and without copper towards Leptosphaeria nodorum (Example 26); assay type: cell-based; conditions: 72 h at 25° C.; for inhibition of growth at 0.05 µg/mL: Parastagonospora nodorum, 72 h, copper-minus medium, read-out: LEPTNO % Inhn. Minus Copper Observed
Phytophthora infestans = assay type: in vivo, Phytophthora infestans on tomato; conditions: applied 24 h before inoculation, assessed 7 days after inoculation
[2] = test compound Concn. 0.05 μg/mL
[3] = copper-plus medium (CuCl2 10 μM), test compound Concn. 0.05 μg/mL
[4] = hydrazone 50 ppm with 50 μM CuCl2.2H2O, tomato late blight
[5] = compound 0.05 μg/mL, copper-plus medium (CuCl2.2H2O)
[6] = hydrazone 50 ppm + 50 μM CuCl2.2H2O, tomato

Structure (SMILES)	inhibition of growth at 0.05 µg/mL [1, 2]	LEPTNO % Inhn. Plus Copper Observed [1, 3]	TLB % Control (Phytophthora infestans; [4])	melting point	inhibition of growth at 0.05 µg/mL ([1]; compound 0.05 μg/mL)	LEPTNO % Inhn. Plus Copper Observed [1, 5]	TLB % Control (Phytophthora infestans; [6])
O=C(N/N=C/c1c(Cl)ccc(Cl)c1O)c1ccc([N+](=O)[O-])cc1 [Example 375]	7.2%	98.2%	90.0%	250 to 300 °C (dec.)			
COc1cccc(O)c1/C=N/NC(=O)c1ccccc1 [Example 237]				215 to 216 °C	0%	91.8%	45.0%
C/C(=N\NC(=O)c1ccccc1)c1cc(C(F)(F)F)ccc1O [Example 527]	7.6%	97.6%	78.0%	226 to 229 °C			
C/C(=N\NC(=O)c1ccccc1Br)c1cc(Cl)cc(Cl)c1O [Example 57]				220 to 222 °C	0%	97.3%	89.5%
COc1ccc(/C(C)=N/NC(=O)c2ccccc2C)c(O)c1 [Example 281]				170 to 172 °C	1.4%	98.4%	67.0%
O=C(N/N=C/c1c(Cl)ccc(Cl)c1O)c1cccc([N+](=O)[O-])c1 [Example 371]	12.6%	96.1%	98.0%	273 to 277 °C			
Cc1ccc(C(=O)N/N=C/c2ccc(Cl)c(Cl)c2O)cc1 [Example 355]	19.6%	89.8%	87.0%	254 to 256 °C			
C/C(=N\NC(=O)c1ccc(Cl)cc1)c1cc(C)ccc1O [Example 317]	16.3%	97.9%	24.0%	203 to 210 °C			
Cc1ccc(C(=O)N/N=C/c2ccc(Cl)cc2O)cc1 [Example 388]	17.2%	98.1%	61.0%	258 to 260 °C			
O=C(N/N=C/c1cccc(Cl)c1O)c1cccc(F)c1 [Example 425]	17.5%	97.6%	95.0%	178 to 184 °C			
Cc1ccc(C(=O)N/N=C/c2c(C(F)(F)F)ccc(Cl)c2O)cc1 [Example 448]	27.1%	97.5%	100.0%	216 to 218 °C			
C/C(=N\NC(=O)c1ccc(Br)cc1)c1cc(Br)ccc1O [Example 517]	0%	96.7%	56.0%	270 to 275 °C			
O=C(N/N=C/c1cc(Cl)cc(Br)c1O)c1ccc(F)cc1 [Example 415]	2.9%	96.1%	100.0%	200 to 211 °C			
O=C(N/N=C/c1cc(Cl)cc(C(F)(F)F)c1O)c1ccc([N+](=O)[O-])cc1 [Example 383]	20.3%	95.7%	100.0%	245 to 247 °C			
C/C(=N\NC(=O)c1ccccc1Br)c1cccc(Cl)c1O [Example 502]	4.2%	97.2%	85.0%	178 to 183 °C			
COc1cccc(/C(C)=N/NC(=O)c2ccc(C(F)(F)F)cc2)c1O [Example 466]	2.7%	97.9%	69.0%	175 to 176 °C			
COc1ccc(/C(C)=N/NC(=O)c2ccc(C)cc2)c(O)c1OC [Example 554]	0%	97.3%	100.0%	245 to 249 °C			
O=C(N/N=C(/c1cc(Cl)cc(Cl)c1O)C(F)(F)F)c1ccccc1 [Example 587]	6.2%	96.6%	2.4%	195 to 196 °C			
Cc1ccc(C(=O)N/N=C/c2cc(Cl)cc(Br)c2O)cc1 [Example 413]	18.9%	97.9%	94.0%	279 to 282 °C			
COc1ccc(C(=O)N/N=C/c2cc(Cl)cc(Cl)c2O)c(O)c1 [Example 486]	12.8%	96.6%	95.0%	267 to 269 °C			

— patent US20120010075A1 (priority 2009, published 2012)
